Experimental data published in article PMC3038857, “Using Nuclear Receptor Activity to Stratify Hepatocarcinogens” (PLoS ONE, 2011).

Legend:
Type in all cases: cell-based
CYP2B6 = assay: CLZD_CYP2B6: Change in expression of CYP2B6 (primary human hepatocytes); conditions: 24 hr, scale not given, looks like -log10 of molar active concentration, 0 = no activity
Summary of the method: (§1)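 Five-point concentration series (0.004-40 µM) applied to primary human hepatocytes; 6/24/48 hr timepoints; transcript quantified by multiplexed nuclease protection.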

ABCB1 = assay: CLZD_ABCB1: Change in expression of ABCB1 (primary human hepatocytes); conditions: 24 hr, scale not given, looks like -log10 of molar active concentration, 0 = no activity
Summary of the method: as §1

CYP1A1 = assay: CLZD_CYP1A1: Change in expression of CYP1A1 (primary human hepatocytes); conditions: 24 hr, scale not given, looks like -log10 of molar active concentration, 0 = no activity
Summary of the method: as §1

PPARa (PPARA) = target: T1, PPARa (PPARA) (Homo sapiens, UniProt Q07869); assay: NCGC_PPARa_Agonist: GAL4 BLAM Reporter gene assay: PPARa; parameters: expressed in transfected cells; host or cells: HEK293; conditions: agonist mode; scale not given, looks like -log10 of molar active concentration; 0 = no activity
T1 sequence (Q07869 1-468): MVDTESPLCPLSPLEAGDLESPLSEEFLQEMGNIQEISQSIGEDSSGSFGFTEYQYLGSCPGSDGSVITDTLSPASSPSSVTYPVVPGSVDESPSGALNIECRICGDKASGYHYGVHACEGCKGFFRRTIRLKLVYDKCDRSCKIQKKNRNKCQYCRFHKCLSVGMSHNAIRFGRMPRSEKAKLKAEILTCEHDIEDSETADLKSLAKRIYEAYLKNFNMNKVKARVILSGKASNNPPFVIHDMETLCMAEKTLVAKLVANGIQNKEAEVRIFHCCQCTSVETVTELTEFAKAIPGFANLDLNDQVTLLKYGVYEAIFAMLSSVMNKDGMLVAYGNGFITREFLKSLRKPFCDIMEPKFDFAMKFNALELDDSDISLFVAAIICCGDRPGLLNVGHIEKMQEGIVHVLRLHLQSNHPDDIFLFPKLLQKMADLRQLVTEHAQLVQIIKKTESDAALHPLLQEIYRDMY
Protocol: These assays measure binding constants and enzyme inhibition values for nuclear receptors. The targets include [drawing 67] , [drawing 68] , [drawing 69] , [drawing 70] , [drawing 71] , [drawing 72] , [drawing 73] , [drawing 74] , [drawing 75] and [drawing 76] . Each of the nuclear receptor targets was measured in agonist mode. Assays were run at the NIH Chemical Genomics Center (Rockville, MD).
Cell-based HTS Assays: These assays measuring binding constants and enzyme inhibition values for nuclear receptors. The targets include AR, ER, FXR, LXR, PPARα, PPARδ, PPARγ, RXRα, RXRβ and PXR. Each of the nuclear receptor targets was measured in both agonist and antagonist mode, but the antagonist data is still undergoing analysis due to possible interference between cytotoxicity and assay activity, so antagonist mode data were not used in the present analysis. Assays were run at the NIH Chemical Genomics Center (Rockville, MD) as part of the Tox21 collaboration. […] The R^2 was required to be ≥0.5. Values where only the highest concentration exceeded 50% activity were excluded to eliminate weak or false positives. Detailed description of the methods, data and analysis methods for this dataset will be presented in a separate publication.

COc1nc(C)nc(NC(=O)NS(=O)(=O)c2ccccc2Cl)n1 [r62]
0: CLZD_CYP2B6_24 (CYP2B6) | CLZD_ABCB1_24 (ABCB1) | CLZD_CYP1A1_24 (CYP1A1) | NCGC_PPARa_Agonist (PPARa (PPARA))

COc1nc(C)nc(NC(=O)NS(=O)(=O)c2ccccc2Cl)n1 [r63]
0: CLZD_CYP2B6_24 (CYP2B6) | CLZD_ABCB1_24 (ABCB1) | CLZD_CYP1A1_24 (CYP1A1) | NCGC_PPARa_Agonist (PPARa (PPARA))

Cc1ccccc1CO[C@@H]1C[C@@]2(C(C)C)CC[C@]1(C)O2 [r64]
0: CLZD_CYP2B6_24 (CYP2B6) | CLZD_ABCB1_24 (ABCB1) | CLZD_CYP1A1_24 (CYP1A1) | NCGC_PPARa_Agonist (PPARa (PPARA))
